Where a name gives a salt, the structure may show the parent alone. Read-outs that look alike come from different tables or passages of the source.
Key:
[1] = target: T1, SARS-CoV-2 PLpro (nsp3 1564–1878) (Severe acute respiratory syndrome coronavirus 2, UniProt P0DTD1); test: biochemical; design: FRET-quenched peptide (Pro3) cleavage by PLpro, 10 min pre-incubation, slope over 20 min, normalised to no-compound control; conditions: high concentration screen, read-out: % of control remaining
[2] = target: T1, SARS-CoV-2 PLpro (nsp3 1564–1878); test: biochemical; design: FRET-quenched peptide (Pro3) cleavage by PLpro, 10 min pre-incubation, slope over 20 min, normalised to no-compound control; conditions: low concentration screen, read-out: % of control remaining

`O=C(OCOC(=O)[C@H]1CCCN1C(=O)CCCCC(=O)N1CCC[C@@H]1C(=O)OCOC(=O)OC1CCOCC1)OC1CCOCC1` [amyloid P-IN-1] showed a remaining activity at 3.75 µM ([1]; Well no.=7788) of 105% and a remaining activity at 1.25 µM ([2]; Well no.=7788) of 103%.
`N[C@@H](CCl)C(=O)O` [beta-Chloro-L-alanine hydrochloride] gave a remaining activity at 3.75 µM ([1]; Well no.=142) of 105% and a remaining activity at 1.25 µM ([2]; Well no.=142) of 103%.
`C[C@]12CC[C@@H]3c4ccc(O)cc4CC[C@H]3[C@@H]1CC[C@@H]2O` [beta-Estradiol] gave a remaining activity at 3.75 µM ([1]; Well no.=511) of 104% and a remaining activity at 1.25 µM ([2]; Well no.=511) of 107%.
`O=C(/C=C/c1ccc(O)cc1)CC(=O)/C=C/c1ccc(O)cc1` [bis-demethoxycurcumin] was tested, and the remaining activity at 3.75 µM ([1]; Well no.=4089) was 101% and the remaining activity at 1.25 µM ([2]; Well no.=4089) was 98.7%.
For `Nc1ncnc2c1ncn2[C@@H]1O[C@@H]2CO[P@@](=O)(O)O[C@H]3[C@@H](O)[C@H](n4cnc5c(N)ncnc54)O[C@@H]3CO[P@@](=O)(O)O[C@H]2[C@H]1O` [c-di-AMP], the remaining activity at 3.75 µM ([1]; Well no.=7914) was 90.2%, the remaining activity at 3.75 µM ([1]; Well no.=8703) was 102% and the remaining activity at 1.25 µM ([2]; Well no.=7914) was 91.4%. The remaining activity at 1.25 µM ([2]; Well no.=8703) was 104%.
Work on `OCCN1CCN(CC/C=C2/c3ccccc3Sc3ccc(C(F)(F)F)cc32)CC1` [cis-(Z)-Flupenthixol dihydrochloride] yielded a remaining activity at 3.75 µM ([1]; Well no.=617) of 98.7% and a remaining activity at 1.25 µM ([2]; Well no.=617) of 99.6%.
`O=C(O)[C@@H]1C[C@H](C(=O)O)N1` [cis-Azetidine-2,4-dicarboxylic acid] gave a remaining activity at 3.75 µM ([1]; Well no.=20) of 99.7% and a remaining activity at 1.25 µM ([2]; Well no.=20) of 101%.
`CCn1nc(C)cc1C(=O)Nc1nc2cc(C(N)=O)cc(OC)c2n1C/C=C/Cn1c(NC(=O)c2cc(C)nn2CC)nc2cc(C(N)=O)cc(OCCCN3CCOCC3)c21` [diABZI STING agonist-1 (trihydrochloride)] was tested, and the remaining activity at 3.75 µM ([1]; Well no.=8553) was 102% and the remaining activity at 1.25 µM ([2]; Well no.=8553) was 110%.
With `CCCCCCCCCCCCCCCCn1cc[n+](Cc2ccccc2)c1C` [eEF-2 Kinase Inhibitor, NH125] the remaining activity at 3.75 µM ([1]; Well no.=2790) was 108% and the remaining activity at 1.25 µM ([2]; Well no.=2790) was 102%.
Work on `CCCCCC[C@@H]([C@@H](C)O)n1cnc2c(N)ncnc21` [erythro-9-(2-Hydroxy-3-nonyl)adenine hydrochloride] yielded a remaining activity at 3.75 µM ([1]; Well no.=513) of 105% and a remaining activity at 1.25 µM ([2]; Well no.=513) of 105%.
With `CCOC(=O)[C@@H](N)CCC(=O)N[C@@H](CSCc1ccccc1)C(=O)N[C@@H](C(=O)OCC)c1ccccc1` [ethyl N5-((R)-3-(benzylthio)-1-(((R)-2-ethoxy-2-oxo-1-phenylethyl)amino)-1-oxopropan-2-yl)-L-glutaminate] the remaining activity at 3.75 µM ([1]; Well no.=5457) was 108% and the remaining activity at 1.25 µM ([2]; Well no.=5457) was 105%.
`C#CC(N)CCC(=O)O` (centres unmarked) [gamma-Acetylinic GABA] gave a remaining activity at 3.75 µM ([1]; Well no.=258) of 94.8% and a remaining activity at 1.25 µM ([2]; Well no.=258) of 94%.
Work on `N[C@H](CCC(=O)NCS(=O)(=O)O)C(=O)O` [gamma-D-Glutamylaminomethylsulfonic acid] yielded a remaining activity at 3.75 µM ([1]; Well no.=652) of 94% and a remaining activity at 1.25 µM ([2]; Well no.=652) of 92.4%.
`COc1cc(C(O)C(=O)O)ccc1O` (centres unmarked) [hydroxy(4-hydroxy-3-methoxyphenyl)acetic acid] was tested, and the remaining activity at 3.75 µM ([1]; Well no.=5433) was 108% and the remaining activity at 1.25 µM ([2]; Well no.=5433) was 103%.
Work on `O[C@H]1[C@H](O)[C@@H](O)[C@H](O)[C@@H](O)[C@H]1O` [i-Inositol] yielded a remaining activity at 3.75 µM ([1]; Well no.=6495) of 101% and a remaining activity at 1.25 µM ([2]; Well no.=6495) of 98.4%.
With `O=C1NCCSc2c1sc1ccc(O)cc21` [kb NB 142-70] the remaining activity at 3.75 µM ([1]; Well no.=6738) was 92.4% and the remaining activity at 1.25 µM ([2]; Well no.=6738) was 92%.
`CC(C(=O)O)c1ccc(CC2CCCC2=O)cc1` (centres unmarked) [loxoprofen] was tested, and the remaining activity at 3.75 µM ([1]; Well no.=927) was 105% and the remaining activity at 1.25 µM ([2]; Well no.=927) was 104%.
Work on `CN1CCN2c3c(cccc31)[C@@H]1CN(CCCC(=O)c3ccc(F)cc3)CC[C@@H]12` [lumateperone (Tosylate)] yielded a remaining activity at 3.75 µM ([1]; Well no.=7807) of 108% and a remaining activity at 1.25 µM ([2]; Well no.=7807) of 104%.
Work on `Cc1cc(C)c(S(=O)(=O)Nc2cccc(C(F)(F)F)c2)c(C)c1` [m -3M3FBS] yielded a remaining activity at 3.75 µM ([1]; Well no.=5841) of 98.2% and a remaining activity at 1.25 µM ([2]; Well no.=5841) of 99.6%.
`NC(N)=NCc1cccc(I)c1` [m -Iodobenzylguanidine hemisulfate salt] was tested, and the remaining activity at 3.75 µM ([1]; Well no.=6075) was 97.8% and the remaining activity at 1.25 µM ([2]; Well no.=6075) was 99.1%.
In the case of `NC(N)=NCc1cccc(I)c1` [m-Iodobenzylguanidine hemisulfate], the remaining activity at 3.75 µM ([1]; Well no.=777) was 108% and the remaining activity at 1.25 µM ([2]; Well no.=777) was 105%.
Molecule `OC[C@@H](O)[C@@H](O)CO` [meso-Erythritol] has a remaining activity at 3.75 µM ([1]; Well no.=6547) of 106% and a remaining activity at 1.25 µM ([2]; Well no.=6547) of 107%.
`CCCCCCCCOC(=O)/C=C/c1ccc(O)c(O)c1` [n-Octyl caffeate] gave a remaining activity at 3.75 µM ([1]; Well no.=4043) of 95.8% and a remaining activity at 1.25 µM ([2]; Well no.=4043) of 93.2%.
Work on `Oc1ccc2c3c1O[C@H]1c4[nH]c5c(c4C[C@@]4(O)[C@@H](C2)N(CC2CC2)CC[C@]314)C[C@@]1(O)[C@H]2Cc3ccc(O)c4c3[C@@]1(CCN2CC1CC1)[C@H]5O4` [nor-Binaltorphimine dihydrochloride] yielded a remaining activity at 3.75 µM ([1]; Well no.=805) of 97% and a remaining activity at 1.25 µM ([2]; Well no.=805) of 100%.
With `Oc1ccc2ccccc2c1SSc1c(O)ccc2ccccc12` [p21-Activated Kinase Inhibitor III, IPA-3] the remaining activity at 3.75 µM ([1]; Well no.=2525) was 102% and the remaining activity at 1.25 µM ([2]; Well no.=2525) was 99.9%.
`CSc1nc(-c2ccnc(NC(C)c3ccccc3)c2)c(-c2ccc(F)cc2)[nH]1` (centres unmarked) [p38 MAP Kinase Inhibitor III] was tested, and the remaining activity at 3.75 µM ([1]; Well no.=2596) was 94.5% and the remaining activity at 1.25 µM ([2]; Well no.=2596) was 94.7%.
Molecule `O=S(=O)(c1c(O)c(Cl)cc(Cl)c1Cl)c1c(O)c(Cl)cc(Cl)c1Cl` [p38 MAP Kinase Inhibitor IV] has a remaining activity at 3.75 µM ([1]; Well no.=2527) of 103% and a remaining activity at 1.25 µM ([2]; Well no.=2527) of 97.2%.
`COc1cc(SC)ccc1C(=O)N1CCC(Cc2ccccc2)CC1` [p38 MAP Kinase Inhibitor VI, JX401] was tested, and the remaining activity at 3.75 µM ([1]; Well no.=2529) was 105% and the remaining activity at 1.25 µM ([2]; Well no.=2529) was 101%.
Molecule `NC(=O)c1ccc2[nH]ccc2c1` [p38 MAP Kinase Inhibitor VII, SD-169] has a remaining activity at 3.75 µM ([1]; Well no.=2531) of 94.8% and a remaining activity at 1.25 µM ([2]; Well no.=2531) of 99.1%.
Molecule `O=c1c(-c2ccc(F)cc2)c(-c2ccncc2)[nH]n1-c1ccc(Cl)cc1` [p38 MAP Kinase Inhibitor] has a remaining activity at 3.75 µM ([1]; Well no.=2598) of 99.2% and a remaining activity at 1.25 µM ([2]; Well no.=2598) of 97.4%.
With `CC(=O)Nc1ccc(NC(=S)NC(=O)c2ccc(C(C)(C)C)cc2)cc1` [p53 Activator (Tenovin-1)] the remaining activity at 3.75 µM ([1]; Well no.=2901) was 96.4% and the remaining activity at 1.25 µM ([2]; Well no.=2901) was 97.7%.
With `CCOc1cc(C(C)(C)C)ccc1C1=N[C@@](C)(c2ccc(Cl)cc2)[C@@](C)(c2ccc(Cl)cc2)N1C(=O)N1CCN(CC(=O)N2CCOCC2)CC1` [p53 and MDM2 proteins-interaction-inhibitor (dihydrochloride)] the remaining activity at 3.75 µM ([1]; Well no.=6832) was 94.5%, the remaining activity at 3.75 µM ([1]; Well no.=7702) was 106% and the remaining activity at 1.25 µM ([2]; Well no.=6832) was 98.9%. The remaining activity at 1.25 µM ([2]; Well no.=7702) was 107%.
